Measured values as given in US11034672B1, “Tyrosine kinase inhibitor compositions, methods of making and methods of use” (Black Diamond Therapeutics, Inc., priority 2018, dated 2021).

How the values were obtained:
Type in all cases: cell-based
EGFR V3 [1] = target: T1, EGFR V3 (Homo sapiens, UniProt P00533, DELINS30-297G); test: BaF3 cell proliferation assay, EGFR V3 (Table A); settings: potency code, 3 days, CellTiterGlo, read-out: EGFR V3 (Activity for Inhibiting EGFR)
T1 construct: expressed in transfected cells; host or cells: BaF3 (murine pro-B), retroviral pMXs-IRES-Blasticidin
T1 sequence (P00533 with tags, fused parts or gaps DELINS30-297G): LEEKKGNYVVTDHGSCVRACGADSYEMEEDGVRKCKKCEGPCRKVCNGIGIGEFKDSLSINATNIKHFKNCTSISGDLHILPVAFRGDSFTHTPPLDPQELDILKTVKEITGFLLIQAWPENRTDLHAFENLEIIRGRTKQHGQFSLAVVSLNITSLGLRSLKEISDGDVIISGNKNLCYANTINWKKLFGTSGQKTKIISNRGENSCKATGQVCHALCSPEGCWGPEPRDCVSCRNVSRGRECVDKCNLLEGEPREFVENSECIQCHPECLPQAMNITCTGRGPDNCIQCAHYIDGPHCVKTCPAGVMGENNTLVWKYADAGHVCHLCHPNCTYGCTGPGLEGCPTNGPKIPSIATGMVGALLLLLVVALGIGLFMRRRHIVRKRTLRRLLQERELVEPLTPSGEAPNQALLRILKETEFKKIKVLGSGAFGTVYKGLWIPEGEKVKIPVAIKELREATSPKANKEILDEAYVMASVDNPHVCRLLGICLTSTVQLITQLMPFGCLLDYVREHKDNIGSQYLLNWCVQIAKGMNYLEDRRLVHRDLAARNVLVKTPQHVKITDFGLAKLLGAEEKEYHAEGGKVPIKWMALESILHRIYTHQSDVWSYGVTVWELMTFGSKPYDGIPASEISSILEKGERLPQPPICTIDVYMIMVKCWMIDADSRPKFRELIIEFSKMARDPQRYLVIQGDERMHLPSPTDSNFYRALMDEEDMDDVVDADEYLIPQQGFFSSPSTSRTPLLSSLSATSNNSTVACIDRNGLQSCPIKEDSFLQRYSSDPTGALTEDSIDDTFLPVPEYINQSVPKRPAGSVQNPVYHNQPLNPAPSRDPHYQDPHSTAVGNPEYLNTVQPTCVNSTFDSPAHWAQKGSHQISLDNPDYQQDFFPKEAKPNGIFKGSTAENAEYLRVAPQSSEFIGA
Summary of the method: (§1)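 Readout: EC50 for BaF3 proliferation. Cells stably expressing the receptor variant were generated by retrovirus and IL-3 independence.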

HER2 S310F [2] = target: T2, HER2 S310F (Homo sapiens, UniProt P04626, S310F); test: Activity for inhibiting HER2 (Table B), HER2 S310F; settings: read-out: HER2 S310F, potency code (IC50)
T2 construct: expressed in transfected cells; host or cells: BaF3 (murine pro-B)
T2 sequence (P04626 23-1255 S310F): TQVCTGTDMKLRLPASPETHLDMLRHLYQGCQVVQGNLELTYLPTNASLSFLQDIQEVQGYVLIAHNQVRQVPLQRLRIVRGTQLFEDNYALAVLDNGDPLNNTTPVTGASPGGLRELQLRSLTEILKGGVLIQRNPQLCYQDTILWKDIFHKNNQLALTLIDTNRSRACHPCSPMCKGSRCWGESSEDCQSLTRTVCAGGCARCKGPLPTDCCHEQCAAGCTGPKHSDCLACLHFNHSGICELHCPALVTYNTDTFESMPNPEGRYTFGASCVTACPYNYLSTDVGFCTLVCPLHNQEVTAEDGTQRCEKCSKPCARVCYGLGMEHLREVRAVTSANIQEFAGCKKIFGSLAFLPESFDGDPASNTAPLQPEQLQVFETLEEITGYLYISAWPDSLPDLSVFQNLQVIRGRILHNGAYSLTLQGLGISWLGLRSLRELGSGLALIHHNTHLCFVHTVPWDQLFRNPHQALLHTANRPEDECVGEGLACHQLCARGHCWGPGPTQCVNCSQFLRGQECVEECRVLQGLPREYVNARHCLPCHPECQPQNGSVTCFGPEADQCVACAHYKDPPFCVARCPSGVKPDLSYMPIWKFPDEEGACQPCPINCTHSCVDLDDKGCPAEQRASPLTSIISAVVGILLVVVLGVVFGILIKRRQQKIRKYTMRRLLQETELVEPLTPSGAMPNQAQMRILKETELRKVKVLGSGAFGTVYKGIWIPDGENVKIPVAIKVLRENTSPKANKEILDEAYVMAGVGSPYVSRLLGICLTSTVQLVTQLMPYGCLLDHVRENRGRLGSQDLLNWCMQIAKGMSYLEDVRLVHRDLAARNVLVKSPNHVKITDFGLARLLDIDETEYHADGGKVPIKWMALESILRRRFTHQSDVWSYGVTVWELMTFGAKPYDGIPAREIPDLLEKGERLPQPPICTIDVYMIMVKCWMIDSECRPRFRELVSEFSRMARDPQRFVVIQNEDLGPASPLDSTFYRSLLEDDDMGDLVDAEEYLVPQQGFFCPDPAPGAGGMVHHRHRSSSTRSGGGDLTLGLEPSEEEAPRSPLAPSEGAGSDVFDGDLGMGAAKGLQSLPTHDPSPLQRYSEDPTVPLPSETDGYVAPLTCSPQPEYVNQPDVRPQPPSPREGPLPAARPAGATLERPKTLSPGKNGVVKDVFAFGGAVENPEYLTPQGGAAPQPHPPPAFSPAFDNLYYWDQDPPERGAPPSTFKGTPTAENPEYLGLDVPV
Experimental: (§2) EC50 values were determined with the same application.

HER2 YVMA [3] = target: T3, HER2 YVMA (Homo sapiens, UniProt P04626, INS775YVMA); test: BaF3 cell proliferation assay, HER2 YVMA (Table B); settings: potency code, 3 days, CellTiterGlo, read-out: HER2 YVMA (Activity for Inhibiting HER2)
T3 construct: expressed in transfected cells; host or cells: BaF3 (murine pro-B)
T3 sequence (P04626 with tags, fused parts or gaps INS775YVMA): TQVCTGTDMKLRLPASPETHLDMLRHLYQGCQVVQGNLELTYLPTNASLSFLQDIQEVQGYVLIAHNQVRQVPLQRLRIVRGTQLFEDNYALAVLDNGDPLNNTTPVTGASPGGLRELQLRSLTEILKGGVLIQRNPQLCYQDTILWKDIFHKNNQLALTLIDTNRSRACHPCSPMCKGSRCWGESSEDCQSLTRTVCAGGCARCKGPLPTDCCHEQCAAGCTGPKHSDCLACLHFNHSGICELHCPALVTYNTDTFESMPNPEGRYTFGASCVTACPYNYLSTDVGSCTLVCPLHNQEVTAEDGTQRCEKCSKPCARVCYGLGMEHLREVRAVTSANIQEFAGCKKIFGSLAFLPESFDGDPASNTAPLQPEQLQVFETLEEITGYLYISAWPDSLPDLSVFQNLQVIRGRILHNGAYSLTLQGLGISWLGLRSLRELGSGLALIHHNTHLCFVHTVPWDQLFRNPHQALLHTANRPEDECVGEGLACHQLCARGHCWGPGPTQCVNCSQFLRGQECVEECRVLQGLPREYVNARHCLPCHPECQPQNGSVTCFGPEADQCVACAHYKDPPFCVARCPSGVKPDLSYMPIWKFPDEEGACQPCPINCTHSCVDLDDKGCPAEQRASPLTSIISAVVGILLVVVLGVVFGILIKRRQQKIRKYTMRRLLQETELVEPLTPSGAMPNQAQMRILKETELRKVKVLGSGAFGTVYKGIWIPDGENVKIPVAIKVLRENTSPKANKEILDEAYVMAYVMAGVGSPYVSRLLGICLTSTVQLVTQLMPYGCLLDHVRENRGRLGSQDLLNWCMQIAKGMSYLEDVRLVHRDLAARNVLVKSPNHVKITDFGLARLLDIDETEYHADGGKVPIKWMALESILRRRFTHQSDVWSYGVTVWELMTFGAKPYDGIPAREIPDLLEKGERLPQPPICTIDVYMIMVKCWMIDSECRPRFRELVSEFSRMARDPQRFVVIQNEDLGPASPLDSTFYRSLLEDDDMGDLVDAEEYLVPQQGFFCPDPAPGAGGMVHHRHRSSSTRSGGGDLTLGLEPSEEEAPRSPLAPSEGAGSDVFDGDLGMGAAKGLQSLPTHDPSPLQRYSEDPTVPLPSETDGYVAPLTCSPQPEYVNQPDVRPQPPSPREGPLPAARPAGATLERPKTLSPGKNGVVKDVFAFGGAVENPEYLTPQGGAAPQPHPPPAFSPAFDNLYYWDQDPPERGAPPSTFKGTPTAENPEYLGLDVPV

EGFR WT [4] = target: T4, EGFR WT (Homo sapiens, UniProt P00533); test: Activity for inhibiting EGFR (Table A), EGFR WT; settings: read-out: EGFR WT, potency code (IC50)
T4 sequence (P00533 25-1210 N540K): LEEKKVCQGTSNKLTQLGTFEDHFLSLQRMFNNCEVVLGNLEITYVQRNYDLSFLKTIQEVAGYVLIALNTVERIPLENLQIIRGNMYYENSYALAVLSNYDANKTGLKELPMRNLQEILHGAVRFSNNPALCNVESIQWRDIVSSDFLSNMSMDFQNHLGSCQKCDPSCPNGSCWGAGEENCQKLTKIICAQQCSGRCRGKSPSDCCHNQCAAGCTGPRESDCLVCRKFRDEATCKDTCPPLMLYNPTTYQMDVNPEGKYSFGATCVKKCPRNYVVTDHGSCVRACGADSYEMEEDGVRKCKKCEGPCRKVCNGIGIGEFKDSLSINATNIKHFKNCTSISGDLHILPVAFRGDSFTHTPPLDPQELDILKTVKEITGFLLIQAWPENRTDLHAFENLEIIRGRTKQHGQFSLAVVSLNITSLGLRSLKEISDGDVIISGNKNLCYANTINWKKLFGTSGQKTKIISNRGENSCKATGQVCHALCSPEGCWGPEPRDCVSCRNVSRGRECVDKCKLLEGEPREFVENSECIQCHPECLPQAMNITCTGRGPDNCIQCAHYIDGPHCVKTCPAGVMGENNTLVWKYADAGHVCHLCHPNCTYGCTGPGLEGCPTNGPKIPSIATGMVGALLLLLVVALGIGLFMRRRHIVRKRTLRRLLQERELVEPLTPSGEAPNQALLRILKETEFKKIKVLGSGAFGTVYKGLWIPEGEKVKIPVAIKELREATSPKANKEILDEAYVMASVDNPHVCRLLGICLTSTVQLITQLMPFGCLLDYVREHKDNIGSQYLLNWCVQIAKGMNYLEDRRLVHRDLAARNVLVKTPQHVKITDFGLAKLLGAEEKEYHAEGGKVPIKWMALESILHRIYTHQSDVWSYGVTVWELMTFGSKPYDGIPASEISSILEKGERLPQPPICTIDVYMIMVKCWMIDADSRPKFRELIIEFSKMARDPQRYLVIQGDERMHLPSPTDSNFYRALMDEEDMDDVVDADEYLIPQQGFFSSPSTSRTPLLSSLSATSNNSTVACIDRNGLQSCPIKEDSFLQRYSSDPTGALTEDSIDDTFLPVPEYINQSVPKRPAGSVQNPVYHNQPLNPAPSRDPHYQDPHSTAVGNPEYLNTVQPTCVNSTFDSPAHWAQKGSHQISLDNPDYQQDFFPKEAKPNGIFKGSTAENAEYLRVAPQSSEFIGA

HER2 YVMA [5] = target: T3, HER2 YVMA; test: Activity for inhibiting HER2 (Table B), HER2 YVMA; settings: read-out: HER2 YVMA, potency code (IC50)
Experimental: as §2

EGFR V3 [6] = target: T1, EGFR V3; test: Activity for inhibiting EGFR (Table A), EGFR V3 (EGFR-Viii); settings: read-out: EGFR V3, potency code (IC50)
EGFR WT [7] = target: T4, EGFR WT; test: BaF3 cell proliferation assay, EGFR WT (Table A); settings: potency code, 3 days, CellTiterGlo, read-out: EGFR WT (Activity for Inhibiting EGFR)
Summary of the method: as §1

HER2 S310F [8] = target: T2, HER2 S310F; test: BaF3 cell proliferation assay, HER2 S310F (Table B); settings: potency code, 3 days, CellTiterGlo, read-out: HER2 S310F (Activity for Inhibiting HER2)

Row | IC50 (EGFR V3 [1]) | IC50 (HER2 S310F [2]) | IC50 (HER2 YVMA [3]) | IC50 (EGFR WT [4]) | IC50 (HER2 YVMA [5]) | IC50 (EGFR V3 [6]) | IC50 (EGFR WT [7]) | IC50 (HER2 S310F [8]) | Compound
1 | 0.03 to 0.05 µM | 0.03 to 0.05 µM | 0.1 to 0.2 µM | 0.2 to 0.3 µM | 0.1 to 0.2 µM | 0.03 to 0.05 µM | 0.2 to 0.3 µM | 0.03 to 0.05 µM | C=CC(=O)Nc1cc2c(Nc3ccc(OCc4ccccn4)c(Cl)c3)ncnc2cc1OCC1CN(C)C1 [compound 123, N-(4-((3-chloro-4-(pyridin-2-ylmethoxy)phenyl)amino)-7-((1-methylazetidin-3-yl)methoxy)quinazolin-6-yl) Acrylamide]
2 | 0.03 to 0.05 µM | 0.03 to 0.05 µM | 0.1 to 0.2 µM | 0.5 to 1 µM | 0.1 to 0.2 µM | 0.03 to 0.05 µM | 0.5 to 1 µM | 0.03 to 0.05 µM | C=CC(=O)Nc1cc2c(Nc3ccc(OCc4ccccn4)c(Cl)c3)ncnc2cc1C#CC1CC2(C1)CN(C)C2 [compound 124, N-(4-((3-chloro-4-(pyridin-2-ylmethoxy)phenyl)amino)-7-((2-methyl-2-azaspiro[3.3]heptan-6-yl)ethynyl)quinazolin-6-yl)acrylamide]
3 | 0.1 to 0.2 µM | 0.1 to 0.2 µM | > 1 µM | 0.5 to 1 µM | > 1 µM | 0.1 to 0.2 µM | 0.5 to 1 µM | 0.1 to 0.2 µM | C=CC(=O)Nc1cc2c(Nc3ccc(OCc4ccccn4)c(Cl)c3)ncnc2cc1OCCN1CCS(=O)(=O)CC1 [compound 125]
4 | 0.03 to 0.05 µM | 0.03 to 0.05 µM | 0.05 to 0.1 µM | 0.3 to 0.5 µM | 0.05 to 0.1 µM | 0.03 to 0.05 µM | 0.3 to 0.5 µM | 0.03 to 0.05 µM | C=CC(=O)Nc1cc2c(Nc3ccc(OCc4ccccn4)c(Cl)c3)ncnc2cc1C#CC12CCN(CC1)CC2 [compound 126, N-(4-((3-chloro-4-(pyridin-2-ylmethoxy)phenyl)amino)-7-(quinuclidin-4-ylethynyl)quinazolin-6-yl)acrylamide]
5 | 0.05 to 0.1 µM | 0.3 to 0.5 µM | > 1 µM | 0.5 to 1 µM | > 1 µM | 0.05 to 0.1 µM | 0.5 to 1 µM | 0.3 to 0.5 µM | C=CC(=O)Nc1cc2c(Nc3ccc(Oc4ccc(Cl)c(F)c4)cc3)ncnc2cc1OCCN1CCOCC1 [compound 127]
6 | 0.1 to 0.2 µM | 0.1 to 0.2 µM | 0.3 to 0.5 µM | 0.5 to 1 µM | 0.3 to 0.5 µM | 0.1 to 0.2 µM | 0.5 to 1 µM | 0.1 to 0.2 µM | C=CC(=O)Nc1cc2c(Nc3ccc(OCc4cccc(C)n4)c(Cl)c3)ncnc2cc1OCCN1CCOCC1 [compound 128]
7 | 0.1 to 0.2 µM | 0.03 to 0.05 µM | 0.1 to 0.2 µM | 0.5 to 1 µM | 0.1 to 0.2 µM | 0.1 to 0.2 µM | 0.5 to 1 µM | 0.03 to 0.05 µM | C=CC(=O)Nc1cc2c(Nc3ccc(OCc4cccc(C)n4)c(Cl)c3)ncnc2cc1OCCCN1CCOCC1 [compound 129]
8 | 0.1 to 0.2 µM | 0.03 to 0.05 µM | 0.3 to 0.5 µM | 0.2 to 0.3 µM | 0.3 to 0.5 µM | 0.1 to 0.2 µM | 0.2 to 0.3 µM | 0.03 to 0.05 µM | C=CC(=O)Nc1cc2c(Nc3ccc(OCc4cccc(F)c4)c(Cl)c3)ncnc2cc1OCCN1CCN(C)CC1 [compound 130]
9 | 0.1 to 0.2 µM | 0.05 to 0.1 µM | 0.3 to 0.5 µM | 0.2 to 0.3 µM | 0.3 to 0.5 µM | 0.2 to 0.3 µM | 0.2 to 0.3 µM | 0.05 to 0.1 µM | C=CC(=O)Nc1cc2c(Nc3cc(Cl)c(OCc4cccc(F)c4)cc3F)ncnc2cc1OCCCN1CC(OC)C1 [compound 131]
10 | 0.3 to 0.5 µM | 0.3 to 0.5 µM | 0.5 to 1 µM | > 1 µM | 0.5 to 1 µM | 0.3 to 0.5 µM | > 1 µM | 0.3 to 0.5 µM | C=CC(=O)Nc1cc2c(Nc3ccc(OCc4cccc(C)n4)c(Cl)c3)ncnc2cc1OCCN1CC2CCC(C1)O2 [compound 132]
11 | 0.1 to 0.2 µM | 0.05 to 0.1 µM | 0.5 to 1 µM | 0.2 to 0.3 µM | 0.5 to 1 µM | 0.1 to 0.2 µM | 0.2 to 0.3 µM | 0.05 to 0.1 µM | C=CC(=O)Nc1cc2c(Nc3cc(Cl)c(OCc4cccc(F)c4)cc3F)ncnc2cc1O[C@@H]1CCN(C)C1 [compound 133]
12 | 0.05 to 0.1 µM | 0.03 to 0.05 µM | 0.3 to 0.5 µM | 0.2 to 0.3 µM | 0.3 to 0.5 µM | 0.05 to 0.1 µM | 0.2 to 0.3 µM | 0.03 to 0.05 µM | C=CC(=O)Nc1cc2c(Nc3cc(Cl)c(OCc4cccc(F)c4)cc3F)ncnc2cc1OCCN1CC(OC)C1 [compound 134]
13 | 0.05 to 0.1 µM | 0.1 to 0.2 µM | 0.3 to 0.5 µM | 0.3 to 0.5 µM | 0.3 to 0.5 µM | 0.05 to 0.1 µM | 0.3 to 0.5 µM | 0.1 to 0.2 µM | C=CC(=O)Nc1cc2c(Nc3ccc(OCc4cccc(C)n4)c(Cl)c3)ncnc2cc1OCCN1CC(OC)C1 [compound 135]
14 | 0.1 to 0.2 µM | 0.03 to 0.05 µM | 0.1 to 0.2 µM | 0.1 to 0.2 µM | 0.1 to 0.2 µM | 0.1 to 0.2 µM | 0.1 to 0.2 µM | 0.03 to 0.05 µM | CC#CC(=O)Nc1cc2c(Nc3cc(Cl)c(OCc4cccc(F)c4)cc3F)ncnc2cc1OCCCN1CC(OC)C1 [compound 136, N-(4-((5-chloro-2-fluoro-4-((3-fluorobenzyl)oxy)phenyl)amino)-7-(3-(3-methoxyazetidin-1-yl)propoxy)quinazolin-6-yl)but-2-ynamide]
15 | 0.05 to 0.1 µM | 0.05 to 0.1 µM | 0.3 to 0.5 µM | 0.2 to 0.3 µM | 0.3 to 0.5 µM | 0.05 to 0.1 µM | 0.2 to 0.3 µM | 0.05 to 0.1 µM | C=CC(=O)Nc1cc2c(Nc3ccc(OCc4cccc(C)n4)c(Cl)c3)ncnc2cc1OCCN1CCN(C)CC1 [compound 137]
16 | 0.05 to 0.1 µM | 0.03 to 0.05 µM | 0.05 to 0.1 µM | 0.1 to 0.2 µM | 0.05 to 0.1 µM | 0.05 to 0.1 µM | 0.1 to 0.2 µM | 0.03 to 0.05 µM | C=CC(=O)Nc1cc2c(Nc3ccc(OCc4cccc(C)n4)c(Cl)c3)ncnc2cc1OCCCN1CC(OC)C1 [compound 138]
17 | 0.1 to 0.2 µM | 0.03 to 0.05 µM | 0.1 to 0.2 µM | 0.5 to 1 µM | 0.1 to 0.2 µM | 0.1 to 0.2 µM | 0.5 to 1 µM | 0.03 to 0.05 µM | C=CC(=O)Nc1cc2c(Nc3ccc(OCc4cccc(F)c4)c(Cl)c3)ncnc2cc1OCCN1CC2CCC(C1)O2 [compound 139]
18 | 0.1 to 0.2 µM | 0.1 to 0.2 µM | 0.3 to 0.5 µM | 0.3 to 0.5 µM | 0.3 to 0.5 µM | 0.1 to 0.2 µM | 0.3 to 0.5 µM | 0.1 to 0.2 µM | C=CC(=O)Nc1cc2c(Nc3ccc(OCc4cccc(C)n4)c(Cl)c3)ncnc2cc1O[C@@H]1CCN(C)C1 [compound 140]
19 | 0.1 to 0.2 µM | 0.03 to 0.05 µM | 0.3 to 0.5 µM | 0.1 to 0.2 µM | 0.3 to 0.5 µM | 0.1 to 0.2 µM | 0.1 to 0.2 µM | 0.03 to 0.05 µM | C=CC(=O)Nc1cc2c(Nc3ccc(OCc4cccc(F)c4)c(Cl)c3)ncnc2cc1O[C@@H]1CCN(C)C1 [compound 141]
20 | 0.1 to 0.2 µM | 0.3 to 0.5 µM | > 1 µM | 0.5 to 1 µM | > 1 µM | 0.1 to 0.2 µM | 0.5 to 1 µM | 0.3 to 0.5 µM | C=CC(=O)Nc1cc2c(Nc3ccc(OCc4ccnc(C)c4)c(Cl)c3)ncnc2cc1OCCN1CCOCC1 [compound 142]
